According to ChEMBL document CHEMBL1201862, “PubChem BioAssay data set” (2004):
Calls of active or inactive are those of the source. For most assays here, no stated cut-off is given here; in the data, actives have a measured EC50 and inactives only a lower limit.

Assays:
[1] = NIH-3T3 fibroblast cytotoxicity, dose response, cytotoxicity control, cell-based, fluorescence, Alamar Blue, secondary assay (AID 2327); assay type: functional;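 further: NIH-3T3 mouse fibroblasts cultured with fluconazole at 8 µg/mL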
[2] = target: Eukaryotic translation initiation factor 4E (Mus musculus, UniProt P63073); test: blockers of eIF4G binding by eIF4E – biochemical, TR-FRET, dose response (AID 855); assay type: functional;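 further: potency for disrupting eIF4E binding to eIF4GI seen as loss of FRET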
Streptococcus = test: GAS UMAA2166 growth inhibition – luminescence, BacTiterGlo, counter-screen for streptokinase expression inhibitor project, dose response (AID 1915); assay type: functional, organism-based;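 further: potency for reduction of bacterial viability or growth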
[3] = fluconazole-exposed Candida albicans growth modulators – fluorescence, retest, confirmation (AID 2467); assay type: functional, cell-based
Streptokinase A = target: T1, Streptokinase A (Streptococcus pyogenes serotype M1, UniProt P10520); test: viability-normalized secreted streptokinase activity reduction – plasminogen activation absorbance, OD405, dose response (AID 1914); assay type: functional, Streptococcus pyogenes M1 GAS;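 further: secreted streptokinase activity via plasminogen activation per viability signal from cell pellet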
T1 sequence (P10520 whole entry): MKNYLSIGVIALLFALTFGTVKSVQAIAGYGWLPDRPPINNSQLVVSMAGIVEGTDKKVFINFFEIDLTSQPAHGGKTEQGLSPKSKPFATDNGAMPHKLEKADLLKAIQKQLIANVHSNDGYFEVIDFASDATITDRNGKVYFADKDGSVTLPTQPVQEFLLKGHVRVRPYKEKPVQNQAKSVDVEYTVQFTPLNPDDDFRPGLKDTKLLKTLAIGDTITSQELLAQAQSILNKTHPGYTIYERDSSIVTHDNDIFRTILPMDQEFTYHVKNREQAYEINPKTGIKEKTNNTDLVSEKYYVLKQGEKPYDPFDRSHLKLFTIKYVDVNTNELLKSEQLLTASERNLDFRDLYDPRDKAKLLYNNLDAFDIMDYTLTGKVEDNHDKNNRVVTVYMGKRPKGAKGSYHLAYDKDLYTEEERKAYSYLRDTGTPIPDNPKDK

Aminopeptidase N = target: T2, Aminopeptidase N (Plasmodium falciparum FcB1/Columbia, UniProt O96935); test: malaria alanyl aminopeptidase activity blockers – biochemical, fluorogenic H-Leu-NHMec substrate, 1536-well (AID 1445); set-up: species or system Plasmodium falciparum 3D7, 3D7
T2 sequence (O96935 whole entry): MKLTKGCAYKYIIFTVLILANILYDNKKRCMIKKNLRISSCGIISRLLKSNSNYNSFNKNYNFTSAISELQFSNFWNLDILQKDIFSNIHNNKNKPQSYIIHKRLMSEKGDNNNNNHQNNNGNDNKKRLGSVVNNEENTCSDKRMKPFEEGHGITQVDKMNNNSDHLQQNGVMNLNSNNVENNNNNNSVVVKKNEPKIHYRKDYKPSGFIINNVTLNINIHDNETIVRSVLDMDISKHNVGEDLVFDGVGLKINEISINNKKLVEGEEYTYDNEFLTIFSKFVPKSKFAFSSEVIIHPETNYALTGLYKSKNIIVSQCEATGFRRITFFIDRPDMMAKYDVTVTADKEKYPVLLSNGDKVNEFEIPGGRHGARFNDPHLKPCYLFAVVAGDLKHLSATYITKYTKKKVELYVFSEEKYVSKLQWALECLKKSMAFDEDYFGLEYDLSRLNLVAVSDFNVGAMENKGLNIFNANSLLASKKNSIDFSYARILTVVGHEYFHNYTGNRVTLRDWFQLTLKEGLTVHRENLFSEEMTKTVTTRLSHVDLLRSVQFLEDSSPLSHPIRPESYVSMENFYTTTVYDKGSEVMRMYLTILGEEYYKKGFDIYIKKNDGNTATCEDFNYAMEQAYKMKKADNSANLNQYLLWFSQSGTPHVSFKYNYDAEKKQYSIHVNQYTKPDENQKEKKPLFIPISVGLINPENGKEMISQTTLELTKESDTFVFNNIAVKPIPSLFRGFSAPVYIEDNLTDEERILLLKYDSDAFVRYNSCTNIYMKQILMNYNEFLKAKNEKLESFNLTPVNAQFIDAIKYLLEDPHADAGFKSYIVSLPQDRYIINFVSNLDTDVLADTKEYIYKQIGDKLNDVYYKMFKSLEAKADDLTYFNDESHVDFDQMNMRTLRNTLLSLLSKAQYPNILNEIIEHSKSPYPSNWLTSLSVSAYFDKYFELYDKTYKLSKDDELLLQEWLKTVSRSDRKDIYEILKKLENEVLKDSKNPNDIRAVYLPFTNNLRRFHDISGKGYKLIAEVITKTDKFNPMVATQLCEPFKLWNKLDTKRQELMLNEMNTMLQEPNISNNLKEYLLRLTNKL

[4] = tested on: Streptococcus sp. 'group A'; test: Streptococcus pyogenes SK(-)GAS viability under kanamycin – luminescence, BacTiterGlo, confirmation, counter-screen for streptokinase expression inhibitor project, dose response (AID 1900); assay type: functional, organism-based
[5] = target: T3, High affinity choline transporter 1 (Homo sapiens, UniProt Q9GZV3); test: human choline transporter blockers, potency – cell-based, 5-point CRC, membrane potential dye, dose response (AID 504840); assay type: functional
T3 sequence (Q9GZV3 whole entry): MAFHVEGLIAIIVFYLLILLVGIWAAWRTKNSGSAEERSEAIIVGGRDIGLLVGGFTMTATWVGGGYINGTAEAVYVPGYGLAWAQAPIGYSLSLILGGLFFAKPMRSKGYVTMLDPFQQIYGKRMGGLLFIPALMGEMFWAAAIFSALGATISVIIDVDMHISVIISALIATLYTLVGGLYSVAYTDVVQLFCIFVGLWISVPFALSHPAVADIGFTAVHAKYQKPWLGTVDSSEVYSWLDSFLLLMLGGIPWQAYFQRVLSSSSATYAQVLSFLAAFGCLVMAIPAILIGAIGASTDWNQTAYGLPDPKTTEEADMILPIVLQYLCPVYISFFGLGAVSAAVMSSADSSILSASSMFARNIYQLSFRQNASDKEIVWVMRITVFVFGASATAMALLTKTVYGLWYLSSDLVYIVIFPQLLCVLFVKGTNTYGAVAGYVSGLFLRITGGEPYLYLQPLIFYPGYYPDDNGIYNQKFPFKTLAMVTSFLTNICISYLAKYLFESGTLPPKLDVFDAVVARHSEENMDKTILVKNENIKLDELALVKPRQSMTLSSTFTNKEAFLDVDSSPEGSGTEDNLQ

[6] = target: T4, Long-chain-fatty-acid--AMP ligase FadD28 (Mycobacterium tuberculosis, UniProt P9WQ59); test: Fluorescence polarization aasay to screen for inhibitors that compete for the binding of FadD28 to a bisubstrate Measured in Biochemical System Using Plate Reader - 2147-01_Inhibitor_Dose_CherryPick_Activity.; assay type: functional, Mycobacterium tuberculosis H37Rv
T4 sequence (P9WQ59 whole entry): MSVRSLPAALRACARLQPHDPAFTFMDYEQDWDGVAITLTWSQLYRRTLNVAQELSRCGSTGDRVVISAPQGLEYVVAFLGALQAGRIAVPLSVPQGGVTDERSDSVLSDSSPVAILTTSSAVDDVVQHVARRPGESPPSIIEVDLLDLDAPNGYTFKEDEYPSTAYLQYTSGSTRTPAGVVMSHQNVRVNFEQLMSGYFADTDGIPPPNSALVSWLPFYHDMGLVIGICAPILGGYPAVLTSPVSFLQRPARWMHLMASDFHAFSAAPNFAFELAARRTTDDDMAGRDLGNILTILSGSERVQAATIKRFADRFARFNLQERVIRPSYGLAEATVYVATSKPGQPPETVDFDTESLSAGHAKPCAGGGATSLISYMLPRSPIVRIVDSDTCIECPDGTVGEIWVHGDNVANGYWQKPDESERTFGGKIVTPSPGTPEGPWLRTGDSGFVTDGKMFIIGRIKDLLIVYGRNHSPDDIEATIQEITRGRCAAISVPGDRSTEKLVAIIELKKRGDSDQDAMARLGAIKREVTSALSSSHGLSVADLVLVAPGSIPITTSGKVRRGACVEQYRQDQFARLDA

Albumin = Albumin (Bos taurus, UniProt P02769); test: Counterscreen for inhibitors of T-cell receptor (TCR)-CD3 interaction: Fluorescence-based biochemical high throughput dose response assay to identify inhibitors of T-cell receptor (TCR)-CD3 interaction using a TAMRA-labeled BSA probe.; assay type: functional
Paired box protein Pax-8 = Paired box protein Pax-8 (Homo sapiens, UniProt Q06710); test: PAX8 transcriptional activity inhibition in RMG-I – RMG-I cells, luciferase, cherry-pick, dose response (AID 687027); assay type: functional, cell-based;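 further: luciferase reporter driven by Pax8 target thyroperoxidase promoter measured by SteadyGlo luminescence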
[7] = target: T5, Ubiquitin-conjugating enzyme E2 N (Homo sapiens, UniProt P61088); assay type: functional;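 further: Dose-response confirmation in a TR-FRET assay detecting UBC13-driven polyubiquitin chain formation, inhibition measured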
T5 sequence (P61088 whole entry): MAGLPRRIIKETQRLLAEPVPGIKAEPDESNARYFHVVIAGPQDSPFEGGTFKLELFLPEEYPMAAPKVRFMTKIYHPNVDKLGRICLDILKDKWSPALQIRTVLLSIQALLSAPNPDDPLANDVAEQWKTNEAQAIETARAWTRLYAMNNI

[8] = alpha-synuclein stem-loop luciferase translation blockers – H4 neuroglioma cells, luminescence, confirmation (AID 1988); assay type: functional, cell-based
[9] = Trypanosoma cruzi growth suppression in host cells – NIH3T3 host cells, beta-gal luminescence, confirmation (AID 2044); assay type: functional, cell-based;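 further: intracellular parasites grown in NIH/3T3 mouse fibroblasts as host cells; luminescent beta-galactosidase reporter signal from transgenic T. cruzi replicating inside host cells; inhibitors lower the luminescence signal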
[10] = luciferase reporter signal suppression in cells – H4 neuroglioma cells, luminescence, dose response (AID 1990); assay type: functional, cell-based
[11] = general cell-killing toxicity readout – plate reader, dry powder samples, cytotoxicity control for PAX8 inhibitor project, dose response (AID 743021); assay type: functional, cell-based
[12] = NIH3T3 cell viability loss – ATP luminescence, mouse fibroblasts, counter-screen, dose response (AID 2010); assay type: functional, cell-based;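 further: cells exposed to compound for about 90 hours before reading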
[13] = Luminescence Cell-Based Dose Response HTS to Identify Inhibitors of 5'UTR Stem-Loop Driven Prion Protein mRNA Translation in H4 Neuroglioblastoma Cells. [Related pubchem assays: 1827 (Project Summary), 1813 (Primary HTS)]; assay type: functional
INS1 = test: INS-1E survival protection against cytokine death – cell-based, luminescence, retest, dose response (AID 449756); assay type: functional; details: Rattus norvegicus;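 further: cell death triggered by IL-1 beta plus TNF-alpha plus IFN-gamma mixture; protective hits raise ATP signal compared with cytokine alone wells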
[14] = target: T6, Heat shock factor protein 1 (Mus musculus, UniProt P38532); test: enhancement of HSF1-driven luciferase signal – cell-based, NIH3T3, luminescence, dose retest, confirmation (AID 435004); assay type: functional;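 further: stress induced by proteasome inhibitor MG132 added 30 min after compound; luciferase reporter driven by HSF1 response element in NIH3T3 cells; actives raise luminescence as potentiators of the MG132 stress response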
T6 sequence (P38532 whole entry): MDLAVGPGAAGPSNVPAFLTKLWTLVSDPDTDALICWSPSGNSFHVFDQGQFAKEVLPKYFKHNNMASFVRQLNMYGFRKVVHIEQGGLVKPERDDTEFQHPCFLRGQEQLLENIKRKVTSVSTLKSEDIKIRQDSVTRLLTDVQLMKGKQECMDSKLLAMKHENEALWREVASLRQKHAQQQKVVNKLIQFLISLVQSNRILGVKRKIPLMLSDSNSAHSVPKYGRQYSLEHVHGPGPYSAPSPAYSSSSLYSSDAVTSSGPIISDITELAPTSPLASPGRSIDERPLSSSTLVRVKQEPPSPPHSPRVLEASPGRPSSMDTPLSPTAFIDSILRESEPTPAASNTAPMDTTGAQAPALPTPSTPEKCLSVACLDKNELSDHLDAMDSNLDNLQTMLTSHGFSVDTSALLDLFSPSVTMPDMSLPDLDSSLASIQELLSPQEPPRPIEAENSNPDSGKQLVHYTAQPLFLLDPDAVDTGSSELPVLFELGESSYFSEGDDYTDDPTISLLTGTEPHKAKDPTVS

Sequence of Albumin (P02769 whole entry): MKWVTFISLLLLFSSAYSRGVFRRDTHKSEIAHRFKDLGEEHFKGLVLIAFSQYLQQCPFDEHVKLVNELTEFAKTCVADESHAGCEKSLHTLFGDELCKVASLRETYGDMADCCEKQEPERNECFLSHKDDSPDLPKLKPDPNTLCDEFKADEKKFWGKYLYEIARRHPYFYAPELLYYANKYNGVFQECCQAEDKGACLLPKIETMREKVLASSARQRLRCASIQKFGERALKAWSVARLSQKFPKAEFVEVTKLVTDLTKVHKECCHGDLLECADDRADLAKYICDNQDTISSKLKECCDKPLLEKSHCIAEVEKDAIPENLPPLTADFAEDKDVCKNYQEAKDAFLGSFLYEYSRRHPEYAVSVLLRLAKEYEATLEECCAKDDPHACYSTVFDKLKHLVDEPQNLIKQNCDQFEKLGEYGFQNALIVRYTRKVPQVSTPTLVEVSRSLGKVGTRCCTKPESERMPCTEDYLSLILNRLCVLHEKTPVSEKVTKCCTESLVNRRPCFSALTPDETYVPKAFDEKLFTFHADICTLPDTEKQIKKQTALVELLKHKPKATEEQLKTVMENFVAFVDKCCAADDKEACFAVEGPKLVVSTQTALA
Sequence of Eukaryotic translation initiation factor 4E (P63073 whole entry): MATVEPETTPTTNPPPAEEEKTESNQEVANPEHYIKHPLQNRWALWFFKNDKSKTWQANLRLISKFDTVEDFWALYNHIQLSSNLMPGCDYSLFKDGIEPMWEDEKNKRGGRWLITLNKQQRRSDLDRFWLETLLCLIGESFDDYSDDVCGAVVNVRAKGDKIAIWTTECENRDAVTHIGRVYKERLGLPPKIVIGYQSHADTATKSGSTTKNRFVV
Sequence of Paired box protein Pax-8 (Q06710 whole entry): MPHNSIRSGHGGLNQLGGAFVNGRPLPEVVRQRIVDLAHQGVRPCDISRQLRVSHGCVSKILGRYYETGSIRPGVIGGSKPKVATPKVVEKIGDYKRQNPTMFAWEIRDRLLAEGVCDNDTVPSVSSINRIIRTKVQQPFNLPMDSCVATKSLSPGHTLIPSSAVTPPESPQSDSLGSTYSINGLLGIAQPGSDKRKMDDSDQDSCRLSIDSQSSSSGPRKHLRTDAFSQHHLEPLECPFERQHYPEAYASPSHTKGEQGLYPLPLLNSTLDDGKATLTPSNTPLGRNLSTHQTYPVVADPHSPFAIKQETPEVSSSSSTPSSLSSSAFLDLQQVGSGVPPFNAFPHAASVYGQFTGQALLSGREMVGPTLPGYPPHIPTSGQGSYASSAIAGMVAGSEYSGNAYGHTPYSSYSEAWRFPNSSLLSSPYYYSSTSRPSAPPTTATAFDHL

In the case of `O=[N+]([O-])c1cc(Br)c(O)c(/C=N/Nc2nnnn2-c2cccc3ccccc23)c1`, the EC50 [1] is reported as > 150 µM (inconclusive), the IC50 [2] is reported as > 64 µM (inactive) and the EC50 (Streptococcus) is reported as > 150 µM (not active). The EC50 [3] was > 38 µM (not active), the EC50 (Streptokinase A) was > 150 µM (not active) and the IC50 (Aminopeptidase N) was 6.79 µM (active). The EC50 [4] was 3.69 µM (active), the IC50 [5] was 30.2 µM (active) and the AC50 [6] was 15.6 µM (active). The IC50 (Albumin) was > 94.1 µM (inactive).

For `COc1ccc(/C=N/Nc2cc(C)nc3ccc(Br)cc23)cc1`, the AC50 (Paired box protein Pax-8) was 8.78 µM (active), the IC50 [7] was > 20 µM (inactive) and the EC50 [8] was 7.61 µM (active). For the same compound, the EC50 [9] was 1.55 µM (active), the EC50 [10] was > 120 µM (not active) and the AC50 [11] was 26.8 µM (active). The EC50 [12] was 8.92 µM (active), the EC50 [13] was 8.17 µM (active) and the AC50 (INS1) was 5.79 µM (active). The EC50 [14] was > 260 µM (inactive).
